ChEMBL document CHEMBL3351906, “Bioactive triterpenoid saponins and phenolic compounds against glioma cells” (Bioorg Med Chem Lett, 2014)
The source made the active and inactive calls. No cut-off for these calls is given here.

Assays:
[1] = tested on: C6; assay: Induction of apoptosis in rat C6 cells assessed as nuclear pyknosis at 2.5 uM after 72 hrs by DAPI staining based fluorescence microscopy; assay type: functional, cell-based
[2] = tested on: C6; assay: Induction of necrosis in rat C6 cells at 2.5 uM after 72 hrs by propidium iodide staining based fluorescence microscopy; assay type: functional, cell-based
[3] = tested on: U-251; assay: Inhibition of cell proliferation of human U251 cells assessed as cell viability after 72 hrs by sulforhodamine B assay; assay type: functional, cell-based; conditions: for IC50: U-251, 72 h
[4] = tested on: U-251; assay: Induction of necrosis in human U251 cells at 20 uM after 72 hrs propidium iodide staining based fluorescence microscopy; assay type: functional, cell-based
[5] = tested on: U-251; assay: Induction of apoptosis in human U251 cells assessed as nuclear pyknosis at 20 uM after 72 hrs by DAPI staining based fluorescence microscopy; assay type: functional, cell-based
[6] = tested on: C6; assay: Inhibition of cell proliferation of rat C6 cells assessed as cell viability after 72 hrs by sulforhodamine B assay; assay type: functional, cell-based; conditions: for IC50: C6, 72 h
[7] = tested on: U-251; assay: Inhibition of cell proliferation of human U251 cells assessed as cell viability at 100 uM after 72 hrs by sulforhodamine B assay; assay type: functional; conditions: U-251, 72 h, read-out: Activity
[8] = tested on: C6; assay: Induction of apoptosis in rat C6 cells assessed as early apoptotic level at 6 uM after 72 hrs by annexin V-FITC/propidium iodide double staining based flow cytometry (reference value: 1.67%); assay type: functional
[9] = tested on: C6; assay: Induction of apoptosis in rat C6 cells assessed as necrotic cell level at 6 uM after 72 hrs by annexin V-FITC/propidium iodide double staining based flow cytometry (reference value: 1.22%); assay type: functional
[10] = tested on: U-251; assay: Induction of apoptosis in human U251 cells assessed as viable cell level at 10 uM after 72 hrs by annexin V-FITC/propidium iodide double staining based flow cytometry (reference value: 94.49%); assay type: functional
[11] = tested on: U-251; assay: Induction of apoptosis in human U251 cells assessed as necrotic cell level at 10 uM after 72 hrs by annexin V-FITC/propidium iodide double staining based flow cytometry (reference value: 1.79%); assay type: functional
[12] = (§1) Inhibition of cell proliferation of human U87MG cells assessed as cell viability after 72 hrs by sulforhodamine B assay; assay type: functional, cell-based, U-87MG ATCC; conditions: U-87 MG
[13] = tested on: C6; assay: Induction of apoptosis in rat C6 cells assessed as late apoptotic level at 6 uM after 72 hrs by annexin V-FITC/propidium iodide double staining based flow cytometry (reference value: 3.68%); assay type: functional
[14] = tested on: U-251; assay: Induction of apoptosis in human U251 cells assessed as nuclear pyknosis at 10 uM after 72 hrs by DAPI staining based fluorescence microscopy; assay type: functional, cell-based
[15] = tested on: U-251; assay: Induction of apoptosis in human U251 cells assessed as early apoptotic level at 10 uM after 72 hrs by annexin V-FITC/propidium iodide double staining based flow cytometry (reference value: 0.56%); assay type: functional
[16] = tested on: C6; assay: Induction of apoptosis in rat C6 cells assessed as nuclear pyknosis at 6 uM after 72 hrs by DAPI staining based fluorescence microscopy; assay type: functional, cell-based
[17] = tested on: U-251; assay: Induction of apoptosis in human U251 cells assessed as late apoptotic level at 10 uM after 72 hrs by annexin V-FITC/propidium iodide double staining based flow cytometry (reference value: 3.16%); assay type: functional
[18] = tested on: U-251; assay: Induction of necrosis in human U251 cells at 10 uM after 72 hrs propidium iodide staining based fluorescence microscopy; assay type: functional, cell-based
[19] = tested on: C6; assay: Induction of necrosis in rat C6 cells at 6 uM after 72 hrs by propidium iodide staining based fluorescence microscopy; assay type: functional, cell-based
[20] = tested on: C6; assay: Induction of apoptosis in rat C6 cells assessed as viable cell level at 6 uM after 72 hrs by annexin V-FITC/propidium iodide double staining based flow cytometry (reference value: 93.43); assay type: functional
[21] = tested on: U-87MG ATCC; assay: as §1; assay type: functional, cell-based
[22] = tested on: C6; assay: Inhibition of cell proliferation of rat C6 cells assessed as cell viability at 100 uM after 72 hrs by sulforhodamine B assay; assay type: functional; conditions: C6, 72 h, read-out: Activity
[23] = tested on: U-251; assay: Induction of necrosis in human U251 cells at 15 uM after 72 hrs propidium iodide staining based fluorescence microscopy; assay type: functional, cell-based
[24] = tested on: U-251; assay: Induction of apoptosis in human U251 cells assessed as viable cell level at 40 uM after 72 hrs by annexin V-FITC/propidium iodide double staining based flow cytometry (reference value: 91.04%); assay type: functional
[25] = tested on: U-251; assay: Induction of apoptosis in human U251 cells assessed as nuclear pyknosis at 15 uM after 72 hrs by DAPI staining based fluorescence microscopy; assay type: functional, cell-based
[26] = tested on: U-251; assay: Induction of apoptosis in human U251 cells assessed as early apoptotic level at 40 uM after 72 hrs by annexin V-FITC/propidium iodide double staining based flow cytometry (reference value: 1.77%); assay type: functional
[27] = tested on: U-251; assay: Induction of apoptosis in human U251 cells assessed as late apoptotic level at 40 uM after 72 hrs by annexin V-FITC/propidium iodide double staining based flow cytometry (reference value: 4.95%); assay type: functional
[28] = tested on: C6; assay: Induction of apoptosis in rat C6 cells assessed as nuclear pyknosis at 10 uM after 72 hrs by DAPI staining based fluorescence microscopy; assay type: functional, cell-based
[29] = tested on: C6; assay: Induction of necrosis in rat C6 cells at 10 uM after 72 hrs by propidium iodide staining based fluorescence microscopy; assay type: functional, cell-based
[30] = tested on: U-251; assay: Induction of apoptosis in human U251 cells assessed as necrotic cell level at 40 uM after 72 hrs by annexin V-FITC/propidium iodide double staining based flow cytometry (reference value: 2.24%); assay type: functional

COc1cc(CCC(=O)OCCc2ccc(O)c(O)c2)ccc1O
Activity [1]: Active | Activity [2]: Active | IC50 [3]: 29.5 µM | Activity [4]: Active | Activity [5]: Active | IC50 [6]: 5.37 µM | viability at 100 µM [7]: 48.4%

C=C[C@@](C)(O)CC/C=C(\C)C(=O)OC[C@H]1O[C@@H](OC(=O)[C@]23CCC(C)(C)C[C@H]2C2=CC[C@@H]4[C@@]5(C)CC[C@H](O[C@@H]6O[C@H](CO[C@@H]7OC[C@H](O)[C@H](O)[C@H]7O[C@@H]7OC[C@@H](O)[C@H](O)[C@H]7O)[C@@H](O)[C@H](O)[C@H]6O)C(C)(C)[C@@H]5CC[C@@]4(C)[C@]2(C)CC3)[C@H](O[C@@H]2O[C@@H](C)[C@H](O[C@@H]3OC[C@@H](O)[C@H](O[C@@H]4OC[C@@H](O)[C@H](O)[C@H]4O)[C@H]3O)[C@@H](O)[C@H]2O)[C@@H](O)[C@@H]1O
Activity [8]: 16.73% | Activity [9]: 21.75% | Activity [10]: 64.13% | Activity [11]: 13.62% | IC50 [3]: 16.9 µM | IC50 [6]: 7.3 µM | IC50 [12]: 14.7 µM | Activity [13]: 21.37% | Activity [14]: Active | Activity [15]: 4.12% | Activity [16]: Active | Activity [17]: 18.13% | viability at 100 µM [7]: 14.2% | Activity [18]: Active | Activity [19]: Active | Activity [20]: 40.15%

Cn1nnc2c(C(N)=O)ncn2c1=O [TEMOZOLOMIDE]
IC50 [3]: > 200 µM | IC50 [6]: 60.5 µM | IC50 [12]: > 200 µM

C[C@@H]1O[C@@H](OC[C@H]2O[C@@H](OC(=O)[C@]34CCC(C)(C)C[C@H]3C3=CC[C@@H]5[C@@]6(C)CC[C@H](O[C@@H]7O[C@H](CO[C@@H]8OC[C@H](O)[C@H](O)[C@H]8O[C@@H]8OC[C@@H](O)[C@H](O)[C@H]8O)[C@@H](O)[C@H](O)[C@H]7O)C(C)(C)[C@@H]6CC[C@@]5(C)[C@]3(C)CC4)[C@H](O[C@@H]3O[C@@H](C)[C@H](O[C@@H]4OC[C@@H](O)[C@H](O[C@@H]5OC[C@@H](O)[C@H](O)[C@H]5O)[C@H]4O)[C@@H](O)[C@H]3O)[C@@H](O)[C@@H]2O)[C@H](O)[C@H](O)[C@H]1O
inhibition [3]: inactive | inhibition [6]: inactive | inhibition [21]: inactive | viability at 100 µM [22]: 97.2% | viability at 100 µM [7]: 83.9%

CC1(C)CC[C@]2(C(=O)O)[C@H](O)C[C@]3(C)C(=CC[C@@H]4[C@@]5(C)CC[C@H](O[C@@H]6O[C@H](CO[C@@H]7OC[C@H](O)[C@H](O)[C@H]7O[C@@H]7OC[C@@H](O)[C@H](O)[C@H]7O)[C@@H](O)[C@H](O)[C@H]6O)C(C)(C)[C@@H]5CC[C@]43C)[C@@H]2C1
inhibition [3]: inactive | inhibition [6]: inactive | inhibition [21]: inactive | viability at 100 µM [22]: 86.2% | viability at 100 µM [7]: 88.8%

C/C=C(/C)C(=O)O[C@H]1[C@H](O)[C@]2(COC(C)=O)[C@H](O)C[C@]3(C)C(=CC[C@@H]4[C@@]5(C)CC[C@H](O[C@@H]6O[C@H](C(=O)OC)[C@@H](O[C@@H]7O[C@H](CO)[C@@H](O)[C@H](O)[C@H]7O)[C@H](O)[C@H]6O[C@@H]6O[C@H](CO)[C@@H](O)[C@H](O)[C@H]6O)[C@](C)(CO)[C@@H]5CC[C@]43C)[C@@H]2CC1(C)C
Activity [23]: Active | Activity [24]: 62.1% | Activity [25]: Active | IC50 [3]: 15.6 µM | Activity [26]: 7.06% | IC50 [6]: 11 µM | IC50 [12]: 8.32 µM | Activity [27]: 26.54% | Activity [28]: Active | Activity [29]: Active | viability at 100 µM [7]: 22.2% | Activity [30]: 4.3%
